{"source": "ChEMBL document CHEMBL3044947", "about": "“Isolation of an insecticidal compound oxalicine B from Penicillium sp. TAMA 71 and confirmation of its chemical structure by X-ray crystallographic analysis” (2007)", "key": {"[1]": {"tested_on": "Frankliniella occidentalis", "assay": "Antifeedant activity against Frankliniella occidentalis (western flower thrips) at 500 ppm", "type": "functional, organism-based"}, "[2]": {"tested_on": "Tetranychus urticae", "assay": "Miticidal activity against Tetranychus urticae (two-spotted spider mite) assessed as insect mortality at 500 ppm", "type": "functional, organism-based"}, "[3]": {"tested_on": "Plutella xylostella", "assay": "Insecticidal activity against Plutella xylostella (diamondback moth) assessed as insect mortality at 500 ppm", "type": "functional, organism-based"}, "[4]": {"tested_on": "Botrytis cinerea", "assay": "Fungicidal activity against Botryotinia fuckeliana at 500 ppm", "type": "functional, organism-based"}, "[5]": {"tested_on": "Frankliniella occidentalis", "assay": "Insecticidal activity against Frankliniella occidentalis (western flower thrips) assessed as insect mortality at 500 ppm", "type": "functional"}, "[6]": {"tested_on": "Podosphaera fuliginea", "assay": "Fungicidal activity against Podosphaera fuliginea at 500 ppm", "type": "functional, organism-based"}, "[7]": {"tested_on": "Bemisia argentifolii", "assay": "Insecticidal activity against Bemisia argentifolii assessed as insect mortality at 500 ppm", "type": "functional, organism-based"}, "[8]": {"tested_on": "Myzus persicae", "assay": "Insecticidal activity against Myzus persicae (green peach aphid) assessed as insect mortality at 100 ppm", "type": "functional"}, "[9]": {"tested_on": "Myzus persicae", "assay": "Insecticidal activity against Myzus persicae (green peach aphid) assessed as insect mortality at 200 ppm", "type": "functional"}}, "note": "Active and inactive are the calls of the source. No cut-off for these calls is given here."}
{"smiles": "C=C(C)[C@]1(O)CC[C@]2(C)[C@H](CC=C(C)[C@]23Oc2cc(-c4cccnc4)oc(=O)c2[C@@H]3O)[C@@]12CCC(=O)OC2", "note": "[OXALICINE B]", "values": [{"measurement": "Activity", "setting": "[1]", "result": "inactive"}, {"measurement": "Activity", "setting": "[2]", "result": "inactive"}, {"measurement": "Activity", "setting": "[3]", "result": "inactive"}, {"measurement": "Activity", "setting": "[4]", "result": "inactive"}, {"measurement": "mortality at 500 ppm", "setting": "[5]", "result": 32, "unit": "%"}, {"measurement": "Activity", "setting": "[6]", "result": "inactive"}, {"measurement": "Activity", "setting": "[7]", "result": "inactive"}, {"measurement": "mortality at 100 ppm", "setting": "[8]", "result": 82, "unit": "%"}, {"measurement": "mortality at 200 ppm", "setting": "[9]", "result": 87, "unit": "%"}]}
